Assay results from US20020031795A1, “Nitrocoumarins for detecting all micro-organisms” (priority 1998, published 2002).

Assays:
Assay type in all cases: cell-based
[1] = system: Escherichia coli (NCTC 10418); test: Growth of E. coli in Mueller-Hinton broth in the presence of nitrocoumarins (optical density 690 nm)
Description: A sample of the 7-nitrocoumarin derivative is dissolved in 4 ml of hot, distilled water. The mass dissolved to make the stock solution is such that the final concentration of the compound in the assay is 0.105 mmol/l. This solution is added to 96 ml of Mueller-Hinton broth and the mixture is sterile-filtered.
(§1) The E. coli was grown for 24 hours at 35° C. on Columbia agar supplemented with sheep blood. The bacteria were then resuspended in sterile, distilled water and their density was adjusted to 0.5 on the MacFarland scale (i.e. about 10^8 cells/ml). This suspension was then diluted 100-fold in sterile Mueller-Hinton broth (i.e. to a final density of about 10^6 cells/ml).
(§2) Fifty microliters of each nitrocoumarin solution plus 50 μl of bacterial suspension were then added to the wells of a microtiter plate. The plates were incubated at 35° C. and the optical density and fluorescence of each well was read every 30 min for a total of 4 hours. Optical density (690 nm) readings were made using an Anthos 2001 spectrophotometer (Labtech International Limited), and fluorescence (excitation at 365 nm and emission at 440 nm) readings were made on a Biolite F1 2001 fluorometer (Labtech International Limited).
The effect of the concentration of 7-nitrocoumarin-3-carboxylic acid on the sensitivity of the assay to detect E. coli (NCTC strain 10418) was investigated at concentrations of the indicator ranging from 0 to 0.262 mmol/l. All other conditions were identical to those described in section A above.

[2] = system: Citrobacter diversus; test: Growth of wild Enterobacteriaceae strain in Mueller-Hinton broth (optical density); conditions: 0.17 mmol/l
Description: as §1, §2
(§3) This experiment was designed to investigate whether or not it would be possible to detect Enterobacteriaceae other than E. coli using 7-nitrocoumarin-3-carboxylic acid. The conditions for this experiment were similar to those described for the first experiment (section A).
(§4) Five wild strains belonging to the species Citrobacter diversus, Enterobacter agglomerans, Hafnia alvei, Morganella morganii and Shigella sonnei were tested

[3] = system: Enterobacter agglomerans; test: as above; conditions: 0.17 mmol/l
Description: as §1, §2, §3, §4

[4] = system: Hafnia alvei; test: as above; conditions: 0.17 mmol/l
Description: as §1, §2, §3, §4

[5] = system: Morganella morganii; test: as above; conditions: 0.17 mmol/l
Description: as §1, §2, §3, §4

[6] = system: Shigella sonnei; test: as above; conditions: 0.17 mmol/l
Description: as §1, §2, §3, §4

O=C(O)c1cc2ccc([N+](=O)[O-])cc2oc1=O [7-nitrocoumarin-3-carboxylic acid]
Optical density (690 nm) ([1]; 0.210 mmol/l, 120 min): 0.027 | Optical density (690 nm) ([1]; 0.210 mmol/l, 150 min): 0.072 | Optical density (690 nm) ([1]; 0.210 mmol/l, 180 min): 0.138 | Optical density (690 nm) ([1]; 0.210 mmol/l, 210 min): 0.187 | Optical density (690 nm) ([1]; 0.210 mmol/l, 240 min): 0.346 | Optical density (690 nm) ([1]; 0.262 mmol/l, 0 min): 0.000 | Optical density (690 nm) ([1]; 0.262 mmol/l, 30 min): 0.000 | Optical density (690 nm) ([1]; 0.262 mmol/l, 60 min): 0.002 | Optical density (690 nm) ([1]; 0.262 mmol/l, 90 min): 0.009 | Optical density (690 nm) ([1]; 0.262 mmol/l, 120 min): 0.027 | Optical density (690 nm) ([1]; 0.262 mmol/l, 150 min): 0.069 | Optical density (690 nm) ([1]; 0.262 mmol/l, 180 min): 0.144 | Optical density (690 nm) ([1]; 0.262 mmol/l, 240 min): 0.346 | Effect of the concentration on E. coli growth (in words) ([1]; concentrations from 0 to 0.262 mmol/l): no significant effect | Optical density (690 nm) ([2]; 0 min): 0.000 | Optical density (690 nm) ([2]; 30 min): 0.000 | Optical density (690 nm) ([2]; 60 min): 0.005 | Optical density (690 nm) ([2]; 90 min): 0.011 | Optical density (690 nm) ([2]; 120 min): 0.020 | Optical density (690 nm) ([2]; 150 min): 0.050 | Optical density (690 nm) ([2]; 180 min): 0.092 | Optical density (690 nm) ([2]; 210 min): 0.143 | Optical density (690 nm) ([2]; 240 min): 0.250 | Optical density (690 nm) ([3]; 0 min): 0.000 | Optical density (690 nm) ([3]; 30 min): −0.002 | Optical density (690 nm) ([3]; 60 min): 0.002 | Optical density (690 nm) ([3]; 90 min): 0.006 | Optical density (690 nm) ([3]; 120 min): 0.027 | Optical density (690 nm) ([3]; 150 min): 0.057 | Optical density (690 nm) ([3]; 180 min): 0.155 | Optical density (690 nm) ([3]; 210 min): 0.225 | Optical density (690 nm) ([3]; 240 min): 0.323 | Optical density (690 nm) ([4]; 0 min): 0.000 | Optical density (690 nm) ([4]; 30 min): −0.001 | Optical density (690 nm) ([4]; 60 min): 0.004 | Optical density (690 nm) ([4]; 90 min): 0.009 | Optical density (690 nm) ([4]; 120 min): 0.016 | Optical density (690 nm) ([4]; 150 min): 0.034 | Optical density (690 nm) ([4]; 180 min): 0.092 | Optical density (690 nm) ([4]; 210 min): 0.149 | Optical density (690 nm) ([4]; 240 min): 0.246 | Optical density (690 nm) ([5]; 0 min): 0.000 | Optical density (690 nm) ([5]; 30 min): −0.010 | Optical density (690 nm) ([5]; 60 min): −0.010 | Optical density (690 nm) ([5]; 90 min): −0.005 | Optical density (690 nm) ([5]; 120 min): 0.003 | Optical density (690 nm) ([5]; 150 min): 0.020 | Optical density (690 nm) ([5]; 180 min): 0.064 | Optical density (690 nm) ([5]; 210 min): 0.116 | Optical density (690 nm) ([5]; 240 min): 0.187 | Optical density (690 nm) ([6]; 0 min): 0.000 | Optical density (690 nm) ([6]; 30 min): −0.001 | Optical density (690 nm) ([6]; 60 min): 0.000 | Optical density (690 nm) ([6]; 90 min): 0.002 | Optical density (690 nm) ([6]; 120 min): 0.013 | Optical density (690 nm) ([6]; 150 min): 0.042 | Optical density (690 nm) ([6]; 180 min): 0.097 | Optical density (690 nm) ([6]; 210 min): 0.159 | Optical density (690 nm) ([6]; 240 min): 0.246
